GI50 and TGI data for 8 molecules are collected here from PubChem BioAssay (NCI).

SMILES strings stand for the structures. Several values for one entry are separate records, joined by “and”; a condition that tells them apart may be missing. Equal values may be shown once.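 Tested at 5 concentrations; 48 h exposure; 96-well plates; endpoints linearly interpolated, else capped at highest concentration. GI50 = concentration required for 50% inhibition of growth. Definition used: TGI = concentration required for complete inhibition of growth.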

Test systems include TK-10 renal; SK-MEL-5 melanoma; SR leukemia; NCI/ADR-RES ovarian; OVCAR-5 ovarian; SF-268 CNS; SK-MEL-28 melanoma; UACC-62 melanoma; HCT-116 colon; MDA-MB-231 breast.
Holding throughout (assay): growth of human tumour cells (NCI), 48 h

For `O=C1C(=O)c2ccc(Br)cc2-c2cc(Br)ccc21`, the GI50 was 22.7 µM in the assay on TK-10 renal; 3.89 µM in the assay on SK-MEL-5 melanoma; 0.998 µM with SR leukemia; 1.59 µM with NCI/ADR-RES ovarian; more than 41.6 µM in the assay on OVCAR-5 ovarian; 1.35 µM in the assay on SF-268 CNS. Moreover, the GI50 in the assay with SK-MEL-28 melanoma was 5.52 µM; with UACC-62 melanoma, 15.2 µM; in the assay with HCT-116 colon, 0.587 µM; with MDA-MB-231 breast, 0.82 µM. The TGI in the assay with TK-10 renal is more than 100 µM; with SK-MEL-5 melanoma, more than 33 µM; in the assay on SR leukemia it was 2.92 µM; in the assay on NCI/ADR-RES ovarian it was 8.12 µM; in the assay on OVCAR-5 ovarian, more than 62.2 µM; in the assay with SF-268 CNS, 8.58 µM. Moreover, the TGI with SK-MEL-28 melanoma is more than 55.5 µM; in the assay on UACC-62 melanoma, more than 64.9 µM; with HCT-116 colon, 1.43 µM; in the assay with MDA-MB-231 breast, 2.54 µM.

With `COc1ccc(-c2cc3cccc(OC)c3c(=O)o2)cc1OC`, the GI50 in the assay on TK-10 renal was more than 100 µM; with SK-MEL-5 melanoma, 4.14 µM; in the assay with SR leukemia it was 0.436 µM; in the assay on NCI/ADR-RES ovarian it was 40.3 µM; with OVCAR-5 ovarian it was 85.5 µM; in the assay with SF-268 CNS, 39.7 µM. For the same molecule, the GI50 was 44.4 µM in the assay on SK-MEL-28 melanoma, 0.661 µM in the assay with UACC-62 melanoma, 29.6 µM with HCT-116 colon and 22.8 µM in the assay with MDA-MB-231 breast. The TGI with TK-10 renal is more than 100 µM; in the assay on SK-MEL-5 melanoma it was 40.8 µM; in the assay on SR leukemia, more than 100 µM; in the assay on NCI/ADR-RES ovarian it was more than 100 µM; with OVCAR-5 ovarian, more than 100 µM; with SF-268 CNS it was more than 100 µM. The TGI in the assay on SK-MEL-28 melanoma, in the assay with UACC-62 melanoma, with HCT-116 colon and in the assay with MDA-MB-231 breast was more than 100 µM throughout.

Consider `COc1cc(-c2c3c(cn2S(=O)(=O)c2ccccc2)-c2nc(N)sc2CC3)cc(OC)c1OC`, for which the GI50 is 5.2 µM in the assay on TK-10 renal; 0.579 µM with SK-MEL-5 melanoma; 0.35 µM with SR leukemia; 0.612 µM in the assay on NCI/ADR-RES ovarian; 4.25 µM in the assay on OVCAR-5 ovarian; 4.46 µM with SF-268 CNS. For the same molecule, the GI50 was 1.12 µM in the assay on SK-MEL-28 melanoma, 0.729 µM in the assay on UACC-62 melanoma, 0.515 µM in the assay on HCT-116 colon and 1.1 µM in the assay with MDA-MB-231 breast. For the same molecule, the TGI in the assay on TK-10 renal is 30.1 µM; in the assay with SK-MEL-5 melanoma, 18.8 µM; with SR leukemia, 15.6 µM; in the assay with NCI/ADR-RES ovarian, more than 100 µM; in the assay with OVCAR-5 ovarian, more than 100 µM; with SF-268 CNS it was more than 100 µM. Moreover, the TGI is 29.8 µM in the assay with SK-MEL-28 melanoma, more than 100 µM in the assay with UACC-62 melanoma, 21.3 µM with HCT-116 colon and 79.1 µM in the assay with MDA-MB-231 breast.

Turning to `CC1(C)CCC(S(=O)(=O)c2ccc3c(c2)/C(=N\O)c2cc(S(=O)(=O)N4CCC(O)(c5cccc(C(F)(F)F)c5)CC4)ccc2-3)CC1`, the GI50 is 0.0441 µM in the assay with TK-10 renal; 0.0454 µM in the assay on SK-MEL-5 melanoma; 0.0174 µM in the assay on SR leukemia; 3.14 µM in the assay on NCI/ADR-RES ovarian; 0.0317 µM in the assay on OVCAR-5 ovarian; 0.0198 µM with SF-268 CNS. For the same molecule, the GI50 in the assay on SK-MEL-28 melanoma was 0.0505 µM; in the assay with UACC-62 melanoma it was 0.0196 µM; in the assay on HCT-116 colon it was 0.0163 µM; in the assay with MDA-MB-231 breast it was 0.0217 µM. In addition, the TGI was found to be 0.393 µM in the assay on TK-10 renal; 0.18 µM in the assay on SK-MEL-5 melanoma; 0.0443 µM with SR leukemia; 0.148 µM with OVCAR-5 ovarian; 0.0429 µM in the assay on SF-268 CNS; 0.446 µM in the assay with SK-MEL-28 melanoma. In addition, the results for the TGI with UACC-62 melanoma, in the assay with HCT-116 colon and in the assay with MDA-MB-231 breast were 0.0351 µM, 0.0327 µM and 0.0438 µM, respectively.

Take `OCC1SC(n2cnc3cncnc32)C(O)C1O` (stereo unspecified): the GI50 in the assay on TK-10 renal, in the assay on SK-MEL-5 melanoma, in the assay on SR leukemia, with NCI/ADR-RES ovarian, in the assay with OVCAR-5 ovarian and in the assay on SF-268 CNS was more than 100 µM each time. Besides, the GI50 in the assay on SK-MEL-28 melanoma, in the assay on UACC-62 melanoma, in the assay on HCT-116 colon and in the assay on MDA-MB-231 breast was more than 100 µM each time. In addition, the TGI with TK-10 renal, in the assay on SK-MEL-5 melanoma, in the assay on SR leukemia, in the assay on NCI/ADR-RES ovarian, with OVCAR-5 ovarian and in the assay with SF-268 CNS was more than 100 µM in each case. Also, the TGI in the assay on SK-MEL-28 melanoma, in the assay on UACC-62 melanoma, in the assay with HCT-116 colon and in the assay with MDA-MB-231 breast was more than 100 µM throughout.

With `C=C1C(=O)O[C@H]2[C@H]1CC/C(COC(=O)OCCCCCOC(=O)OC/C1=C/CC[C@@]3(C)O[C@H]3[C@H]3OC(=O)C(=C)[C@@H]3CC1)=C\CC[C@@]1(C)O[C@@H]21`, the GI50 in the assay on TK-10 renal was 0.222 µM; in the assay on SK-MEL-5 melanoma it was 1.53 µM; with SR leukemia, 0.208 µM; in the assay with NCI/ADR-RES ovarian, 2.34 µM; in the assay with OVCAR-5 ovarian, 0.581 µM; in the assay on SF-268 CNS, 1.68 µM. Further, the GI50 in the assay on SK-MEL-28 melanoma was 0.252 µM; with UACC-62 melanoma, 1.28 µM; with HCT-116 colon it was 0.174 µM; in the assay with MDA-MB-231 breast, 0.256 µM. Besides, the TGI in the assay with TK-10 renal turned out to be 0.59 µM; with SK-MEL-5 melanoma, 3.07 µM; in the assay on SR leukemia, 0.744 µM; in the assay on NCI/ADR-RES ovarian it was 9.58 µM; with OVCAR-5 ovarian it was 2.08 µM; with SF-268 CNS, 3.99 µM. Moreover, the TGI in the assay on SK-MEL-28 melanoma was 0.842 µM; in the assay on UACC-62 melanoma, 3.05 µM; in the assay with HCT-116 colon, 0.5 µM; in the assay with MDA-MB-231 breast, 0.803 µM.

With `COc1cc2c(cc1OC)C13CCN4CC5=CCOC(CC(=O)O)C(C5CC41)C3N2` (stereo unspecified), the TGI in the assay with TK-10 renal, with SK-MEL-5 melanoma, with SR leukemia, in the assay on NCI/ADR-RES ovarian, in the assay on OVCAR-5 ovarian and in the assay on SF-268 CNS was more than 100 µM in each case. Also, the TGI with SK-MEL-28 melanoma, with UACC-62 melanoma, in the assay with HCT-116 colon and in the assay on MDA-MB-231 breast was more than 100 µM each time.

`O=C(Cn1ccnc1[N+](=O)[O-])N(CCO)CCO`: the TGI in the assay on TK-10 renal is more than 250 µM; in the assay with SK-MEL-5 melanoma, more than 1250 µM; in the assay on SR leukemia, more than 79 µM; in the assay on NCI/ADR-RES ovarian, more than 1250 µM; with OVCAR-5 ovarian, more than 1250 µM; with SF-268 CNS it was more than 1250 µM. Further, the TGI was more than 1250 µM in the assay with SK-MEL-28 melanoma; > 250 µM and 1240 µM in the assay with UACC-62 melanoma; more than 1250 µM in the assay on HCT-116 colon; more than 250 µM with MDA-MB-231 breast. The GI50 is more than 1250 µM in the assay with SK-MEL-5 melanoma; more than 1250 µM with NCI/ADR-RES ovarian; more than 1250 µM with OVCAR-5 ovarian; more than 1250 µM in the assay with SF-268 CNS; more than 1250 µM in the assay with SK-MEL-28 melanoma; more than 943 µM in the assay with UACC-62 melanoma. Further, the GI50 in the assay with HCT-116 colon was more than 1250 µM.
